Results reported in article PMC5218480 (PLoS ONE, 2017).

Test system: MV-4-11 cells
Assay: Gene expression microarray analysis (Affymetrix PrimeView) and GSEA
Type: cell-based, human
Design: RFU PODN (11730768_x_at) / Fold change /veh PODN (11730768_x_at) / RFU LINC00158 (11744669_a_at) / Fold change /veh LINC00158 (11744669_a_at) / RFU DUSP10 (11751237_a_at) / Fold change /veh DUSP10 (11751237_a_at) / RFU ID3 (11757404_x_at) / Fold change /veh ID3 (11757404_x_at) / RFU PLEKHG5 (11737974_s_at) / Fold change /veh PLEKHG5 (11737974_s_at) / RFU LRRC4B (11730491_at) / Fold change /veh LRRC4B (11730491_at) / RFU GIMAP4 (11747438_a_at) / Fold change /veh GIMAP4 (11747438_a_at) / RFU KRT8 (11758183_x_at) / Fold change /veh KRT8 (11758183_x_at) / RFU CNN1 (11734310_a_at) / Fold change /veh CNN1 (11734310_a_at) / RFU VPS37D (11726825_at) / Fold change /veh VPS37D (11726825_at) / RFU C10orf10 (11716522_x_at) / Fold change /veh C10orf10 (11716522_x_at) / RFU KIR2DL2 /// KIR2DL4 /// KIR2DL5A /// KIR2DL5B /// KIR2DS1 /// KIR2DS2 /// KIR2DS3 /// KIR2DS4 /// KIR3DL3 /// KIR3DL3 /// KIR3DS1 (11738374_at) / Fold change /veh KIR2DL2 /// KIR2DL4 /// KIR2DL5A /// KIR2DL5B /// KIR2DS1 /// KIR2DS2 /// KIR2DS3 /// KIR2DS4 /// KIR3DL3 /// KIR3DL3 /// KIR3DS1 (11738374_at) / RFU C1QL1 (11718748_at) / Fold change /veh C1QL1 (11718748_at) / RFU TMPRSS4 (11747572_a_at) / Fold change /veh TMPRSS4 (11747572_a_at) / RFU HAMP (11756126_x_at) / Fold change /veh HAMP (11756126_x_at) / RFU RNFT2 (11725882_a_at) / Fold change /veh RNFT2 (11725882_a_at) / RFU NR4A2 (11747474_a_at) / Fold change /veh NR4A2 (11747474_a_at) / RFU ABCC12 (11746883_a_at) / Fold change /veh ABCC12 (11746883_a_at) / RFU TMEM136 (11760407_x_at) / Fold change /veh TMEM136 (11760407_x_at) / RFU CLDN22 /// WWC2 (11732394_at) / Fold change /veh CLDN22 /// WWC2 (11732394_at) / RFU HLA-DPB1 (11760878_x_at) / Fold change /veh HLA-DPB1 (11760878_x_at) / RFU SPINT1 (11716480_a_at) / Fold change /veh SPINT1 (11716480_a_at) / RFU GAP43 (11754022_s_at) / Fold change /veh GAP43 (11754022_s_at) / RFU A4GNT (11735810_at) / Fold change /veh A4GNT (11735810_at) / RFU PRB3 (11715151_x_at) / Fold change /veh PRB3 (11715151_x_at) / RFU TUBB4B (11761932_at) / Fold change /veh TUBB4B (11761932_at) / RFU CAPN14 (11732068_a_at) / Fold change /veh CAPN14 (11732068_a_at) / RFU TMCC2 (11721928_a_at) / Fold change /veh TMCC2 (11721928_a_at) / RFU IRGQ (11745062_a_at) / Fold change /veh IRGQ (11745062_a_at) / RFU FAM174B (11720279_a_at) / Fold change /veh FAM174B (11720279_a_at) / RFU TMPRSS4 (11748680_a_at) / Fold change /veh TMPRSS4 (11748680_a_at) / RFU FAM212B (11763350_a_at) / Fold change /veh FAM212B (11763350_a_at) / RFU PLEKHG5 (11743358_a_at) / Fold change /veh PLEKHG5 (11743358_a_at) / RFU ZSCAN30 (11745921_a_at) / Fold change /veh ZSCAN30 (11745921_a_at) / RFU CMKLR1 (11741424_a_at) / Fold change /veh CMKLR1 (11741424_a_at) / RFU LOC101060620 /// MAPK8IP1 (11723275_at) / Fold change /veh LOC101060620 /// MAPK8IP1 (11723275_at) / RFU SPTSSB (11747773_x_at) / Fold change /veh SPTSSB (11747773_x_at) / RFU PRSS12 (11739890_at) / Fold change /veh PRSS12 (11739890_at) / RFU BIN1 (11741810_x_at) / Fold change /veh BIN1 (11741810_x_at) / RFU WNT11 (11732464_a_at) / Fold change /veh WNT11 (11732464_a_at) / RFU C10orf10 (11716521_a_at) / Fold change /veh C10orf10 (11716521_a_at) / RFU C5orf56 (11738089_at) / Fold change /veh C5orf56 (11738089_at) / RFU CYB561 (11721691_x_at) / Fold change /veh CYB561 (11721691_x_at) / RFU ANKRD19P (11752326_a_at) / Fold change /veh ANKRD19P (11752326_a_at) / RFU OR2T12 /// OR2T33 /// OR2T8 (11738714_s_at) / Fold change /veh OR2T12 /// OR2T33 /// OR2T8 (11738714_s_at) / RFU VCAN (11748164_a_at) / Fold change /veh VCAN (11748164_a_at) / RFU JSRP1 (11732532_at) / Fold change /veh JSRP1 (11732532_at) / RFU KRTAP10-11 (11738290_x_at) / Fold change /veh KRTAP10-11 (11738290_x_at) / RFU MYO3A (11730013_a_at) / Fold change /veh MYO3A (11730013_a_at) / RFU EBF3 (11725865_a_at) / Fold change /veh EBF3 (11725865_a_at) / RFU CAMK2N1 (11719241_x_at) / Fold change /veh CAMK2N1 (11719241_x_at) / RFU C5orf56 (11738088_a_at) / Fold change /veh C5orf56 (11738088_a_at) / RFU OLFML3 (11715873_a_at) / Fold change /veh OLFML3 (11715873_a_at) / RFU LOC100653217 /// NTM (11731650_a_at) / Fold change /veh LOC100653217 /// NTM (11731650_a_at) / RFU MAPK11 (11762145_a_at) / Fold change /veh MAPK11 (11762145_a_at) / RFU FIZ1 (11724087_x_at) / Fold change /veh FIZ1 (11724087_x_at) / RFU OASL (11726364_x_at) / Fold change /veh OASL (11726364_x_at) / RFU SOX15 (11748057_x_at) / Fold change /veh SOX15 (11748057_x_at) / RFU CD79A (11719716_a_at) / Fold change /veh CD79A (11719716_a_at) / RFU HIST1H1D (11736915_at) / Fold change /veh HIST1H1D (11736915_at) / RFU CASKIN2 (11723855_a_at) / Fold change /veh CASKIN2 (11723855_a_at) / RFU LOC730098 (11760151_x_at) / Fold change /veh LOC730098 (11760151_x_at) / RFU OR4N2 (11742367_at) / Fold change /veh OR4N2 (11742367_at) / RFU PRRT2 (11749266_a_at) / Fold change /veh PRRT2 (11749266_a_at) / RFU SNX32 (11753110_a_at) / Fold change /veh SNX32 (11753110_a_at) / RFU CDHR5 (11726645_a_at) / Fold change /veh CDHR5 (11726645_a_at) / RFU RCAN1 (11760418_a_at) / Fold change /veh RCAN1 (11760418_a_at) / RFU FAM167A (11723789_a_at) / Fold change /veh FAM167A (11723789_a_at) / RFU FAM26E (11764081_at) / Fold change /veh FAM26E (11764081_at) / RFU ISYNA1 (11749810_s_at) / Fold change /veh ISYNA1 (11749810_s_at) / RFU ACY1 (11761880_at) / Fold change /veh ACY1 (11761880_at) / RFU 11764098_at / Fold change /veh 11764098_at / RFU SAMD14 (11745864_x_at) / Fold change /veh SAMD14 (11745864_x_at) / RFU NPB (11741838_a_at) / Fold change /veh NPB (11741838_a_at) / RFU TMPRSS6 (11731388_a_at) / Fold change /veh TMPRSS6 (11731388_a_at) / RFU KRTAP10-2 (11738614_at) / Fold change /veh KRTAP10-2 (11738614_at) / RFU ARHGAP8 /// PRR5-ARHGAP8 (11727945_x_at) / Fold change /veh ARHGAP8 /// PRR5-ARHGAP8 (11727945_x_at) / RFU KRTAP5-7 /// NADSYN1 (11734609_at) / Fold change /veh KRTAP5-7 /// NADSYN1 (11734609_at) / RFU RASL12 (11751679_a_at) / Fold change /veh RASL12 (11751679_a_at) / RFU CDKN2B (11736163_a_at) / Fold change /veh CDKN2B (11736163_a_at) / RFU PRF1 (11729649_at) / Fold change /veh PRF1 (11729649_at) / RFU, ZNF638 /// ZNF638-IT1 / Fold change vs veh, ZNF638 /// ZNF638-IT1 / RFU, PANK3 / Fold change vs veh, PANK3 / RFU, SH3YL1 / Fold change vs veh, SH3YL1 / RFU, ZEB2 / Fold change vs veh, ZEB2 / RFU, NRIP1 / Fold change vs veh, NRIP1 / RFU, PTTG1IP / Fold change vs veh, PTTG1IP / RFU, CAPN2 / Fold change vs veh, CAPN2 / RFU, MED14 / Fold change vs veh, MED14 / RFU, SNORA58 / Fold change vs veh, SNORA58 / RFU, C1orf63 / Fold change vs veh, C1orf63 / RFU, LRRFIP1 / Fold change vs veh, LRRFIP1 / RFU, NDUFAF7 / Fold change vs veh, NDUFAF7 / RFU, SLC12A2 / Fold change vs veh, SLC12A2 / RFU, IBTK / Fold change vs veh, IBTK / RFU, ESF1 / Fold change vs veh, ESF1 / Fold change vs veh, TMEM50B / RFU, TAOK1 / Fold change vs veh, TAOK1 / RFU, ACBD3 / Fold change vs veh, ACBD3 / RFU, TMA16 / Fold change vs veh, TMA16 / RFU, RWDD3 / Fold change vs veh, RWDD3 / RFU, BCAT1 / Fold change vs veh, BCAT1 / RFU, EDEM3 / Fold change vs veh, EDEM3 / RFU, TMEM33 / Fold change vs veh, TMEM33 / RFU, WDR75 / Fold change vs veh, WDR75 / RFU, AHCTF1 / Fold change vs veh, AHCTF1 / RFU, TFRC / Fold change vs veh, TFRC / RFU, ZDHHC17 / Fold change vs veh, ZDHHC17 / RFU, NOM1 / Fold change vs veh, NOM1 / RFU, ARL8B / Fold change vs veh, ARL8B / RFU, ZBTB11 / Fold change vs veh, ZBTB11 / RFU, TAMM41 / Fold change vs veh, TAMM41 / RFU, KIAA1704 /// LOC100996395 / Fold change vs veh, KIAA1704 /// LOC100996395 / RFU, ING1 / Fold change vs veh, ING1 / RFU, TRMT61B / Fold change vs veh, TRMT61B / RFU, FUBP3 / Fold change vs veh, FUBP3 / RFU, TP53 / Fold change vs veh, TP53 / RFU, TNKS2 / Fold change vs veh, TNKS2 / RFU, ZFP14 / Fold change vs veh, ZFP14 / RFU, ACTR2 / Fold change vs veh, ACTR2 / RFU, PPP3R1 / Fold change vs veh, PPP3R1 / RFU, PIK3R1 / Fold change vs veh, PIK3R1 / RFU, HNRNPA1 / Fold change vs veh, HNRNPA1 / RFU, RNF170 / Fold change vs veh, RNF170 / RFU, ZNF28 / Fold change vs veh, ZNF28 / RFU, RNGTT / Fold change vs veh, RNGTT / RFU, OGT / Fold change vs veh, OGT / RFU, BRD1 / Fold change vs veh, BRD1 / RFU, MARS / Fold change vs veh, MARS / RFU, ZNF655 / Fold change vs veh, ZNF655 / RFU, FAHD1 / Fold change vs veh, FAHD1 / RFU, BDP1 / Fold change vs veh, BDP1 / RFU, LRRCC1 / Fold change vs veh, LRRCC1 / RFU, ARID1A / Fold change vs veh, ARID1A / RFU, ZNF146 / Fold change vs veh, ZNF146 / RFU, ZNF330 / Fold change vs veh, ZNF330 / RFU, GPN3 / Fold change vs veh, GPN3 / RFU, C9orf123 / Fold change vs veh, C9orf123 / RFU, N4BP2L2 / Fold change vs veh, N4BP2L2 / RFU, ARFIP1 / Fold change vs veh, ARFIP1 / RFU, FAM179B / Fold change vs veh, FAM179B / RFU, BCL10 / Fold change vs veh, BCL10 / RFU, UHRF1BP1L / Fold change vs veh, UHRF1BP1L / RFU, BET1 / Fold change vs veh, BET1 / RFU, CNOT2 / Fold change vs veh, CNOT2 / RFU, ZNF268 / Fold change vs veh, ZNF268 / Fold change vs veh, ZNF507 / RFU, DGCR2 / Fold change vs veh, DGCR2 / RFU, WDSUB1 / Fold change vs veh, WDSUB1 / Fold change vs veh, HSP90B1 /// MIR3652 / RFU, ADSS / Fold change vs veh, ADSS / RFU, GK / Fold change vs veh, GK / RFU, ZNF148 / Fold change vs veh, ZNF148 / RFU, TAF9 / Fold change vs veh, TAF9 / RFU, SLC1A5 / Fold change vs veh, SLC1A5 / RFU, SLMO2 / Fold change vs veh, SLMO2 / RFU, ABCC4 / Fold change vs veh, ABCC4 / RFU, LOC101060439 /// RAP1B / Fold change vs veh, LOC101060439 /// RAP1B / RFU, RFX7 / Fold change vs veh, RFX7 / RFU, GTPBP10 / Fold change vs veh, GTPBP10 / RFU, CNEP1R1 / Fold change vs veh, CNEP1R1 / RFU, BIVM-ERCC5 /// ERCC5 / Fold change vs veh, BIVM-ERCC5 /// ERCC5 / RFU, ILF3 / Fold change vs veh, ILF3 / RFU 11762660_at / Fold change /veh 11762660_at / RFU VCAN (11757783_s_at) / Fold change /veh VCAN (11757783_s_at) / RFU DDX43 (11728927_at) / Fold change /veh DDX43 (11728927_at) / RFU KRT8 (11758188_x_at) / Fold change /veh KRT8 (11758188_x_at) / RFU NKD1 (11759106_at) / Fold change /veh NKD1 (11759106_at) / RFU SRD5A1 (11742802_a_at) / Fold change /veh SRD5A1 (11742802_a_at) / RFU TPSAB1 /// TPSB2 (11721975_s_at) / Fold change /veh TPSAB1 /// TPSB2 (11721975_s_at) / RFU GSTM3 (11746129_a_at) / Fold change /veh GSTM3 (11746129_a_at) / RFU IL23R (11737362_x_at) / Fold change /veh IL23R (11737362_x_at) / RFU TMEM51 (11727254_a_at) / Fold change /veh TMEM51 (11727254_a_at) / RFU PIWIL2 (11732686_x_at) / Fold change /veh PIWIL2 (11732686_x_at) / RFU ORM1 (11744905_x_at) / Fold change /veh ORM1 (11744905_x_at) / RFU CCDC152 (11743942_at) / Fold change /veh CCDC152 (11743942_at) / RFU ECM1 (11717891_a_at) / Fold change /veh ECM1 (11717891_a_at) / RFU IL23R (11748794_a_at) / Fold change /veh IL23R (11748794_a_at) / RFU TNFAIP8L3 (11732012_x_at) / Fold change /veh TNFAIP8L3 (11732012_x_at) / RFU MBOAT4 (11741988_at) / Fold change /veh MBOAT4 (11741988_at) / RFU 11764193_at / Fold change /veh 11764193_at / RFU TMEM53 (11763286_at) / Fold change /veh TMEM53 (11763286_at) / RFU MAGEB2 (11727129_at) / Fold change /veh MAGEB2 (11727129_at) / RFU TMEM200A (11744735_a_at) / Fold change /veh TMEM200A (11744735_a_at) / RFU CCDC152 (11751479_a_at) / Fold change /veh CCDC152 (11751479_a_at) / RFU FAM211A (11726209_a_at) / Fold change /veh FAM211A (11726209_a_at) / RFU RGS16 (11746705_a_at) / Fold change /veh RGS16 (11746705_a_at) / RFU VCAN (11755009_s_at) / Fold change /veh VCAN (11755009_s_at) / RFU RHOB (11743442_s_at) / Fold change /veh RHOB (11743442_s_at) / RFU RGS16 (11720943_a_at) / Fold change /veh RGS16 (11720943_a_at) / RFU RGS16 (11720944_at) / Fold change /veh RGS16 (11720944_at) / RFU, VPS4B / Fold change vs veh, VPS4B / RFU, CREB1 / Fold change vs veh, CREB1 / RFU, DNAJC13 / Fold change vs veh, DNAJC13 / RFU, GNAQ / Fold change vs veh, GNAQ / RFU, CDK5R1 / Fold change vs veh, CDK5R1 / RFU, ZRANB3 / Fold change vs veh, ZRANB3 / RFU, CUL4A / Fold change vs veh, CUL4A / RFU, CCNY / Fold change vs veh, CCNY / RFU, UFL1 / Fold change vs veh, UFL1 / RFU, COG3 / Fold change vs veh, COG3 / RFU, DIAPH2 / Fold change vs veh, DIAPH2 / RFU, SKA2 / Fold change vs veh, SKA2 / RFU, AFF3 / Fold change vs veh, AFF3 / RFU, LMF1 / Fold change vs veh, LMF1 / RFU, IPO11 / Fold change vs veh, IPO11 / RFU, DFFB / Fold change vs veh, DFFB / RFU, FOXP1 / Fold change vs veh, FOXP1 / RFU, CARD8 / Fold change vs veh, CARD8 / RFU, STRN3 / Fold change vs veh, STRN3 / RFU, ADK / Fold change vs veh, ADK / RFU, RASSF2 / Fold change vs veh, RASSF2 / RFU, WIPF1 / Fold change vs veh, WIPF1 / RFU, LARP1B / Fold change vs veh, LARP1B / RFU, RASA1 / Fold change vs veh, RASA1 / RFU, RB1 / Fold change vs veh, RB1 / RFU, PPFIA1 / Fold change vs veh, PPFIA1 / RFU, MAT2A / Fold change vs veh, MAT2A / RFU, CCT5 / Fold change vs veh, CCT5 / RFU, WDR92 / Fold change vs veh, WDR92 / RFU, CUX1 / Fold change vs veh, CUX1 / RFU, TTC7A / Fold change vs veh, TTC7A / RFU, TMEM135 / Fold change vs veh, TMEM135 / RFU, DEPTOR / Fold change vs veh, DEPTOR / RFU, CPM / Fold change vs veh, CPM / RFU, DNAJB6 / Fold change vs veh, DNAJB6 / RFU, CACNA2D3 / Fold change vs veh, CACNA2D3 / RFU, DTX4 / Fold change vs veh, DTX4 / RFU, TFCP2 / Fold change vs veh, TFCP2 / RFU, GMCL1 /// GMCL1P1 / Fold change vs veh, GMCL1 /// GMCL1P1 / RFU, AEBP2 / Fold change vs veh, AEBP2 / RFU, SNHG1 /// SNORD22 /// SNORD25 /// SNORD26 /// SNORD27 /// SNORD28 /// SNORD29 /// SNORD31 / Fold change vs veh, SNHG1 /// SNORD22 /// SNORD25 /// SNORD26 /// SNORD27 /// SNORD28 /// SNORD29 /// SNORD31 / Fold change (Aza/veh), C12orf56 (ProbeSet 11735607_a_at) / Fold change (ACY-1035/veh), C12orf56 (ProbeSet 11735607_a_at) / Fold change (Aza/veh), FGFR1OP (ProbeSet 11751329_s_at) / Fold change (ACY-1035/veh), FGFR1OP (ProbeSet 11751329_s_at) / Fold change (Aza/veh), VPS36 (ProbeSet 11739960_a_at) / Fold change (ACY-1035/veh), VPS36 (ProbeSet 11739960_a_at) / RFU SYPL1 (11715823_x_at) / Fold change /veh SYPL1 (11715823_x_at) / RFU IGFBP7 (11715501_s_at) / Fold change /veh IGFBP7 (11715501_s_at) / RFU REEP3 (11722064_at) / Fold change /veh REEP3 (11722064_at) / RFU IGLL1 (11728026_x_at) / Fold change /veh IGLL1 (11728026_x_at): dose or concentration left out as unconfirmed
Details: ProbeSet 11723141_at; LIST B

Nc1ncn([C@@H]2O[C@H](CO)[C@@H](O)[C@H]2O)c(=O)n1 [azacitidine]
RFU, ZBTB11: 125.26 RFU
